Laboratory results: patent US8765944B2, “Compounds for the treatment of hepatitis C” (priority 2010, dated 2014)

Tested on: HCV pseudoparticles
Assay: HCV pseudoparticle infection assay (luciferase reporter, Huh7 cells)
Format: cell-based, HCV (genotype 1b E1 and E2 envelope)
Settings: Hepatitis C virus, genotype 1b, Huh-7, 48 h, HCV pseudoparticles (genotype 1b), luciferase activity 2 days after infection

CN(C)S(=O)(=O)NC(=O)CCNC(=O)c1ccc(Nc2nc(NC3(c4ccc(Cl)cc4)CC3)nc(OCC(F)(F)F)n2)cc1 [Example 2022]
EC50 (class): 0.5 to 100 nM

O=C(NS(=O)(=O)C1CCCC1)c1ccc(Nc2nc(NC3(c4ccc(Cl)cc4)CC3)nc(OCC(F)(F)F)n2)cc1 [Example 8017]
EC50 (class): 0.5 to 100 nM

COCC1(S(=O)(=O)NC(=O)c2ccc(N(C)c3nc(OCC(F)(F)F)nc(N(C)C4(c5ccc(Cl)cc5)CC4)n3)cc2)CC1 [Example 8010]
EC50 (class): 1000 to 5000 nM

Cn1cnc(C[C@H](NC(=O)c2ccc(Nc3nc(NC4(c5ccc(Cl)cc5)CC4)nc(OCC(F)(F)F)n3)cc2)C(=O)N[C@]2(C(=O)NS(=O)(=O)C(C)(C)C)C[C@H]2C2CC2)c1 [Example 8021]
EC50 (class): 0.5 to 100 nM

CC(C)(CNC(=O)c1ccc(Nc2nc(NC3(c4ccc(Cl)cc4)CC3)nc(OCC(F)(F)F)n2)cc1)C(=O)N[C@]1(C(=O)NS(=O)(=O)C2CC2)C[C@H]1C1CC1 [Example 2081]
EC50 (class): 0.5 to 100 nM

C=CS(=O)(=O)NC(=O)C1(CNC(=O)c2ccc(Nc3nc(NC4(c5ccc(Cl)cc5)CC4)nc(OCC(F)(F)F)n3)cc2)CC1 [Example 2072]
EC50 (class): 0.5 to 100 nM

CC(C)(C)OC(=O)N1CCC(C(=O)NS(=O)(=O)CCNC(=O)c2ccc(Nc3nc(NC4(c5ccc(Cl)cc5)CC4)nc(OCC(F)(F)F)n3)cc2)CC1 [Example 4005]
EC50 (class): 0.5 to 100 nM

Cn1cnc(C[C@H](NC(=O)c2ccc(Nc3nc(NC4(c5ccc(Cl)cc5)CC4)nc(OCC(F)(F)F)n3)cc2)C(=O)NS(=O)(=O)C2CC2)c1 [Example 8018]
EC50 (class): 0.5 to 100 nM

O=C(NCC1(CN2CCCC2)CC1)c1ccc(Nc2nc(NC3(c4ccc(C(=O)NS(=O)(=O)C5CCC5)cc4)CC3)nc(OCC(F)(F)F)n2)cc1 [Example 7002]
EC50 (class): 0.5 to 100 nM

NC(=O)C1C[C@@H]2C[C@@H]2N1CC1(S(=O)(=O)NC(=O)c2ccc(Nc3nc(NC4(c5ccc(Cl)cc5)CC4)nc(OCC(F)(F)F)n3)cc2)CC1 (some centres unmarked) [Example 1017]
EC50 (class): 0.5 to 100 nM

O=C(NCCS(=O)(=O)NC(=O)c1ccc(Nc2nc(NC3(c4ccc(Cl)cc4)CC3)nc(OCC(F)(F)F)n2)cc1)c1ccccc1 [Example 1037]
EC50 (class): 0.5 to 100 nM

Cc1ccccc1S(=O)(=O)N1CCN(c2nc(Nc3ccc(C(=O)NS(=O)(=O)C4(CN(C)C)CC4)cc3)nc(OCC(F)(F)F)n2)CC1 [Example 8034]
EC50: 23000 nM
EC50 (class): 1000 to 5000 nM

C=CS(=O)(=O)NC(=O)CNC(=O)c1ccc(Nc2nc(NC3(c4ccc(Cl)cc4)CC3)nc(OCC(F)(F)F)n2)cc1 [Example 2010]
EC50: 67 nM
EC50 (class): 0.5 to 100 nM

CN(C)S(=O)(=O)NC(=O)CCCNC(=O)c1ccc(Nc2nc(NC3(c4ccc(Cl)cc4)CC3)nc(OCC(F)(F)F)n2)cc1 [Example 2025]
EC50 (class): 0.5 to 100 nM

CC(C)(CNC(=O)c1ccc(Nc2nc(NC3(c4ccc(Cl)cc4)CC3)nc(OCC(F)(F)F)n2)cc1)C(=O)NS(C)(=O)=O [Example 2085]
EC50 (class): 0.5 to 100 nM

CC(C)(C)OC(=O)NCCS(=O)(=O)NC(=O)c1ccc(Nc2nc(NC3(c4ccc(Cl)cn4)CC3)nc(OCC(F)(F)F)n2)cc1 [Example 8042]
EC50 (class): 0.5 to 100 nM

O=C(NCC1(C(=O)NC2(C(=O)NS(=O)(=O)C3CC3)CC2)CC1)c1ccc(Nc2nc(NC3(c4ccc(Cl)cc4)CC3)nc(OCC(F)(F)F)n2)cc1 [Example 2067]
EC50 (class): 0.5 to 100 nM

CC(C)S(=O)(=O)NC(=O)COc1ccc(C2(Nc3nc(Nc4ccc(C(=O)NCC5(CN6CCCC6)CC5)cc4)nc(OCC(F)(F)F)n3)CC2)cc1 [Example 6000, 4-(4-(1-(4-(2-(1-methylethylsulfonamido)-2-oxoethoxy)phenyl)cyclopropylamino)-6-(2,2,2-trifluoroethoxy)-1,3,5-triazin-2-ylamino)-N-((1-(pyrrolidin-1-ylmethyl)cyclopropyl)methyl)benzamide]
EC50 (class): 0.5 to 100 nM

C=C[C@@H]1C[C@]1(NC(=O)C(C)(C)CNC(=O)c1ccc(Nc2nc(NC3(c4ccc(Cl)cc4)CC3)nc(OCC(F)(F)F)n2)cc1)C(=O)NS(=O)(=O)C1CCC1 [Example 2083]
EC50 (class): 0.5 to 100 nM

C[C@H](NC(=O)CCCNC(=O)c1ccc(Nc2nc(NC3(c4ccc(Cl)cc4)CC3)nc(OCC(F)(F)F)n2)cc1)C(=O)NS(=O)(=O)C1CCC1 [Example 2058]
EC50 (class): 0.5 to 100 nM

COc1ccc(C(=O)N2CCN(c3nc(Nc4ccc(C(=O)NS(=O)(=O)C5(CN(C)C)CC5)cc4)nc(OCC(F)(F)F)n3)CC2)cc1 [Example 8041]
EC50 (class): 1000 to 5000 nM

C=C[C@@H]1C[C@]1(NC(=O)C1(CNC(=O)c2ccc(Nc3nc(NC4(c5ccc(Cl)cc5)CC4)nc(OCC(F)(F)F)n3)cc2)CC1)C(=O)NS(=O)(=O)C1CCC1 [Example 2069]
EC50 (class): 0.5 to 100 nM

CC(C)S(=O)(=O)N1CCN(c2nc(Nc3ccc(C(=O)NS(=O)(=O)C4(CN(C)C)CC4)cc3)nc(OCC(F)(F)F)n2)CC1 [Example 8026]
EC50 (class): 1000 to 5000 nM

CC(C)(C)S(=O)(=O)NC(=O)[C@@]1(NC(=O)CCCNC(=O)c2ccc(Nc3nc(NC4(c5ccc(Cl)cc5)CC4)nc(OCC(F)(F)F)n3)cc2)C[C@H]1C1CC1(F)F (some centres unmarked) [Example 2050]
EC50 (class): 0.5 to 100 nM

O=C(NS(=O)(=O)C1(Cc2ccccc2)CC1)c1ccc(Nc2nc(NC3(c4ccc(Cl)cc4)CC3)nc(OCC(F)(F)F)n2)cc1 [Example 8014]
EC50: 12.7 nM
EC50 (class): 0.5 to 100 nM

C[C@H](NC(=O)CCCNC(=O)c1ccc(Nc2nc(NC3(c4ccc(Cl)cc4)CC3)nc(OCC(F)(F)F)n2)cc1)C(=O)NS(=O)(=O)C1CC1 [Example 2057]
EC50 (class): 0.5 to 100 nM

CN(CC1(S(=O)(=O)NC(=O)c2ccc(Nc3nc(NC4(c5ccc(Cl)cc5)CC4)nc(OCC(F)(F)F)n3)cc2)CC1)C1CC1 [Example 1022]
EC50 (class): 0.5 to 100 nM

CC(C)(C)COC(=O)NCCS(=O)(=O)NC(=O)c1ccc(Nc2nc(NC3(c4ccc(Cl)cc4)CC3)nc(OCC(F)(F)F)n2)cc1 [Example 1046]
EC50 (class): 0.5 to 100 nM

O=C(NS(=O)(=O)CCCN1CCCC1)c1ccc(Nc2nc(NC3(c4ccc(Cl)cc4)CC3)nc(N3CCCC3)n2)cc1 [Example 8003]
EC50 (class): 1000 to 5000 nM

CN(C)CC1(S(=O)(=O)NC(=O)c2ccc(Nc3nc(OCC(F)(F)F)nc(N4CCN(S(=O)(=O)c5ccccc5F)CC4)n3)cc2)CC1 [Example 8030]
EC50 (class): 1000 to 5000 nM

CCS(=O)(=O)NC(=O)c1ccc(Nc2nc(NC3(c4ccc(Cl)cc4)CC3)nc(OCC(F)(F)F)n2)cc1 [Example 1003]
EC50 (class): 0.5 to 100 nM

CC(=O)N1CCN(c2nc(Nc3ccc(C(=O)NS(=O)(=O)C4(CN(C)C)CC4)cc3)nc(OCC(F)(F)F)n2)CC1 [Example 8024]
EC50 (class): 1000 to 5000 nM

C=C[C@@H]1C[C@]1(NC(=O)C(C)(C)CNC(=O)c1ccc(Nc2nc(NC3(c4ccc(Cl)cc4)CC3)nc(OCC(F)(F)F)n2)cc1)C(=O)NS(=O)(=O)C1CC1 [Example 2080]
EC50 (class): 0.5 to 100 nM

C=C[C@@H]1C[C@]1(NC(=O)C1(CNC(=O)c2ccc(Nc3nc(NC4(c5ccc(Cl)cc5)CC4)nc(OCC(F)(F)F)n3)cc2)CC1)C(=O)NS(=O)(=O)C(C)(C)C [Example 2068]
EC50 (class): 0.5 to 100 nM

CC(C)(CNC(=O)c1ccc(Nc2nc(NC3(c4ccc(Cl)cc4)CC3)nc(OCC(F)(F)F)n2)cc1)C(=O)NS(=O)(=O)C1CC1 [Example 2084]
EC50: 6 nM
EC50 (class): 0.5 to 100 nM

CC(C)S(=O)(=O)NC(=O)[C@@]1(NC(=O)CCCNC(=O)c2ccc(Nc3nc(NC4(c5ccc(Cl)cc5)CC4)nc(OCC(F)(F)F)n3)cc2)C[C@H]1C1CC1(F)F (some centres unmarked) [Example 2048]
EC50 (class): 0.5 to 100 nM

CC(C)(C)OC(=O)N1C[C@@H](NC(=O)c2ccc(Nc3nc(NC4(c5ccc(Cl)cc5)CC4)nc(OCC(F)(F)F)n3)cc2)C[C@@H]1C(=O)NS(=O)(=O)C1CC1 [Example 5000]
EC50 (class): 0.5 to 100 nM
